Measured values published in the NIST ThermoML archive (doi:10.1021/je5010214).
Numbers after ± are expanded uncertainties.

Details: Liquid, Vibrating tube method

In the case of CCCCO [butan-1-ol], the mass density (343.15 K, 44927 kPa) is reported as 804.186 ± 0.9 kg/m3, the mass density (343.15 K, 47908 kPa) is reported as 806.033 ± 0.91 kg/m3 and the mass density (343.15 K, 50059 kPa) is reported as 807.349 ± 0.91 kg/m3. The mass density (343.15 K, 52026 kPa) was 808.534 ± 0.92 kg/m3, the mass density (343.15 K, 59944 kPa) was 813.181 ± 0.94 kg/m3 and the mass density (343.15 K, 61967 kPa) was 814.212 ± 0.94 kg/m3. It also gave a mass density (343.15 K, 65070 kPa) of 815.911 ± 0.95 kg/m3, a mass density (343.15 K, 66059 kPa) of 816.518 ± 0.96 kg/m3 and a mass density (343.16 K, 34034 kPa) of 797.101 ± 0.87 kg/m3. For the same molecule, the mass density (343.16 K, 54919 kPa) was 810.24 ± 0.93 kg/m3, the mass density (343.16 K, 57986 kPa) was 812.021 ± 0.93 kg/m3 and the mass density (348.15 K, 88.8 kPa) was 765.578 ± 0.81 kg/m3. For the same molecule, the mass density (348.15 K, 462.2 kPa) was 765.945 ± 0.81 kg/m3, the mass density (348.15 K, 859.8 kPa) was 766.355 ± 0.81 kg/m3 and the mass density (348.15 K, 974.2 kPa) was 766.465 ± 0.81 kg/m3. It also gave a mass density (348.15 K, 1974.9 kPa) of 767.461 ± 0.81 kg/m3, a mass density (348.15 K, 3051.1 kPa) of 768.513 ± 0.81 kg/m3 and a mass density (348.15 K, 5094 kPa) of 770.529 ± 0.81 kg/m3. For the same molecule, the mass density (348.15 K, 10025 kPa) was 775.087 ± 0.82 kg/m3, the mass density (348.15 K, 14792 kPa) was 779.258 ± 0.83 kg/m3 and the mass density (348.15 K, 20111 kPa) was 783.649 ± 0.84 kg/m3. It also gave a mass density (348.15 K, 22163 kPa) of 785.27 ± 0.85 kg/m3, a mass density (348.15 K, 28080 kPa) of 789.8 ± 0.86 kg/m3 and a mass density (348.15 K, 30149 kPa) of 791.333 ± 0.86 kg/m3. The mass density (348.15 K, 32161 kPa) was 792.797 ± 0.87 kg/m3, the mass density (348.15 K, 33959 kPa) was 793.985 ± 0.87 kg/m3 and the mass density (348.15 K, 35045 kPa) was 794.751 ± 0.88 kg/m3. For the same molecule, the mass density (348.15 K, 37937 kPa) was 796.729 ± 0.88 kg/m3, the mass density (348.15 K, 40026 kPa) was 798.192 ± 0.89 kg/m3 and the mass density (348.15 K, 42066 kPa) was 799.57 ± 0.89 kg/m3. It also gave a mass density (348.15 K, 47915 kPa) of 803.304 ± 0.91 kg/m3, a mass density (348.15 K, 49950 kPa) of 804.611 ± 0.92 kg/m3 and a mass density (348.15 K, 52167 kPa) of 805.991 ± 0.92 kg/m3. For the same molecule, the mass density (348.15 K, 55022 kPa) was 807.759 ± 0.93 kg/m3, the mass density (348.15 K, 57945 kPa) was 809.531 ± 0.94 kg/m3 and the mass density (348.15 K, 60030 kPa) was 810.761 ± 0.94 kg/m3. For the same molecule, the mass density (348.15 K, 64942 kPa) was 813.608 ± 0.96 kg/m3, the mass density (348.15 K, 66153 kPa) was 814.319 ± 0.96 kg/m3 and the mass density (348.16 K, 291.7 kPa) was 765.77 ± 0.81 kg/m3. It also gave a mass density (348.16 K, 7050.2 kPa) of 772.352 ± 0.82 kg/m3, a mass density (348.16 K, 9003.2 kPa) of 774.145 ± 0.82 kg/m3 and a mass density (348.16 K, 12187 kPa) of 777.001 ± 0.83 kg/m3. For the same molecule, the mass density (348.16 K, 17899 kPa) was 781.843 ± 0.84 kg/m3, the mass density (348.16 K, 25100 kPa) was 787.55 ± 0.85 kg/m3 and the mass density (348.16 K, 32942 kPa) was 793.364 ± 0.87 kg/m3. For the same molecule, the mass density (348.16 K, 45051 kPa) was 801.465 ± 0.9 kg/m3, the mass density (348.16 K, 62063 kPa) was 811.961 ± 0.95 kg/m3 and the mass density (353.15 K, 86.2 kPa) was 760.995 ± 0.81 kg/m3. The mass density (353.15 K, 336 kPa) was 761.273 ± 0.81 kg/m3, the mass density (353.15 K, 572.6 kPa) was 761.533 ± 0.81 kg/m3 and the mass density (353.15 K, 926 kPa) was 761.914 ± 0.81 kg/m3. It also gave a mass density (353.15 K, 1016.4 kPa) of 762.008 ± 0.81 kg/m3, a mass density (353.15 K, 2992.1 kPa) of 764.106 ± 0.81 kg/m3 and a mass density (353.15 K, 4963.9 kPa) of 766.051 ± 0.81 kg/m3. For the same molecule, the mass density (353.15 K, 7000.9 kPa) was 768.126 ± 0.82 kg/m3, the mass density (353.15 K, 9062.3 kPa) was 770.136 ± 0.82 kg/m3 and the mass density (353.15 K, 10005 kPa) was 771.015 ± 0.82 kg/m3. The mass density (353.15 K, 12128 kPa) was 772.98 ± 0.83 kg/m3, the mass density (353.15 K, 14954 kPa) was 775.544 ± 0.83 kg/m3 and the mass density (353.15 K, 17977 kPa) was 778.173 ± 0.84 kg/m3. For the same molecule, the mass density (353.15 K, 19937 kPa) was 779.792 ± 0.84 kg/m3, the mass density (353.15 K, 21894 kPa) was 781.405 ± 0.85 kg/m3 and the mass density (353.15 K, 24908 kPa) was 783.869 ± 0.85 kg/m3. The mass density (353.15 K, 27850 kPa) was 786.199 ± 0.86 kg/m3, the mass density (353.15 K, 29936 kPa) was 787.797 ± 0.86 kg/m3 and the mass density (353.15 K, 31876 kPa) was 789.263 ± 0.87 kg/m3. The mass density (353.15 K, 32961 kPa) was 790.048 ± 0.87 kg/m3, the mass density (353.15 K, 34945 kPa) was 791.423 ± 0.88 kg/m3 and the mass density (353.15 K, 37913 kPa) was 793.571 ± 0.89 kg/m3. It also gave a mass density (353.15 K, 40143 kPa) of 795.172 ± 0.89 kg/m3, a mass density (353.15 K, 42067 kPa) of 796.559 ± 0.9 kg/m3 and a mass density (353.15 K, 45002 kPa) of 798.55 ± 0.9 kg/m3. The mass density (353.15 K, 48029 kPa) was 800.525 ± 0.91 kg/m3, the mass density (353.15 K, 50145 kPa) was 801.944 ± 0.92 kg/m3 and the mass density (353.15 K, 52082 kPa) was 803.184 ± 0.92 kg/m3. It also gave a mass density (353.15 K, 55132 kPa) of 805.077 ± 0.93 kg/m3, a mass density (353.15 K, 57980 kPa) of 806.879 ± 0.94 kg/m3 and a mass density (353.15 K, 60098 kPa) of 808.146 ± 0.95 kg/m3.
